{"source": "patent US10344279B2", "about": "“Methods for the prevention and the treatment of extracapillary glomerulonephritis” (INSERM (Institut National de la Sante et de la Recherche …, priority 2014, dated 2019)", "key": {"[1]": {"tested_on": "Ki67 and PCNA mRNA expression in primary podocytes", "experiment": "RT-PCR of proliferation markers Ki67 and PCNA in primary podocyte cultures", "format": "cell-based, mouse", "experimental": "After 4 days of primary culture, podocytes were trypsinized then plated into μ-Dish 35 mm high with Culture-Insert (Ibidi). Ibidi's wounding inserts were used for cell migration studies. The coverage of the 500-μm gap was assessed after 12 hours of culture and podocyte migration area was quantified using ImageJ software. The effects of HB-EGF (10 ng/mL, Preprotech) or AG1478 (1 μM, Calbiochem) or anti-mIL-6 monoclonal antibody MP5-20F3 (10 μg/mL, eBiosciences) or Stattic (2 μM, Calbiochem) on differentiated podocytes was applied during 16 hours. After stimulation, podocytes were scrapped in Phosphosafe buffer for protein extraction or in RLT buffer for total RNA extraction. Total RNA extraction of mice glomeruli was performed using an Rneasy Minikit (Qiagen) and reverse transcribed into cDNA using the Quantitect Reverse Transcription kit (Qiagen) according to the manufacturer's protocol. cDNA and standard were amplified in Maxima SYBR Green/Rox qPCR mix (Fermentas) on an ABI PRISM thermo cycler. The comparative method of relative quantification (2-ΔΔCT) was used to calculate the expression level of each target gene, normalized to GAPDH. The oligonucleotide sequences are available upon request. The data are presented as the fold change in gene expression. […] Anti-miR-Control#1 was used as control (All from Ambion, 50 nM)."}, "[2]": {"tested_on": "phospho-STAT3 (Tyr705)", "experiment": "Western blot of phospho-STAT3 in glomeruli / kidney cortex of NTS-challenged mice", "format": "in vivo", "conditions": "Stattic 25 mg/kg i.p. every other day, started with NTS; 129S2 mice; after 10 days of RPGN; vs vehicle", "experimental": "Podocyte-specific disruption of Stat3 mice were generated by crossing podocin-Cre positive mice (63) with Stat3 floxed mice (64) on C57BL6/J background. Their age-matched littermates with no deletion of Stat3 in any cells are considered as controls. […] Stattic (25 mg/kg) was administered in i.p. way every other day for 10 days. 10 weeks old 129S2/SvPasCr male mice were randomly treated with Stattic and were compared to vehicle-treated (DMSO) littermates.\nThe glomerulonephritis was induced on male mice (10-12 weeks of age) by intravenous injection of 15 μL of sheep anti-glomerular basement membrane (GBM) nephrotoxic serum (NTS), which was diluted with 85 μL of sterile phosphate buffer solution. Serum injections were repeated twice (on days 2 and 3) at 6 μL/g of body weight and 7 μL/g respectively.\nMouse kidneys were extracted, minced, and digested in 2 mg/mL collagenase I solution (Gibco) in RPMI 1640 (Invitrogen) at 37° C. for 3 minutes, then filtered through a 70-μm cell strainer and one more through a 40-μm cell strainer. […] Podocyte outgrowth area was quantified at day 4 using ImageJ software.\n(§1) After extraction from glomeruli or podocytes with lysis buffer, proteins were quantified by BCA protein assay kit (iNtRON Biotechnology). […] Protein loading was monitored by using the rat anti-tubulin antibody (Abeam). […] Densitometric analysis with ImageJ software was used for quantification."}, "[3]": {"tested_on": "STAT3", "experiment": "STAT3 protein level in anti-miR-92a transfected podocytes", "format": "cell-based, mouse", "conditions": "data not shown", "experimental": "Anti-miR-Control#1 was used as control (All from Ambion, 50 nM)."}, "[4]": {"tested_on": "p57", "experiment": "p57 immunostaining on kidney sections of NTS-challenged mice", "format": "in vivo", "conditions": "NTS-induced decrease; anti-miR-92a administration", "experimental": "(§2) Deparaffinized kidney sections were incubated for 30 minutes at 95° C. in the target retrieval solution (S1699, Dako), then in peroxidase blocking reagent (S2001, Dako), blocked in PBS containing 5% BSA and immunostained against phospho-STAT3 (Tyr705) (Cell Signaling Technology) and phospho-STAT3 (Tyr705) (Millipore), STAT3 (Cell Signaling Technology), podocalyxin (R&D systems), Ki-67 (Abeam) and p57 (Santa Cruz Technology). […] For STAT3 and podocalyxin immunofluorescence, primary antibody incubation was followed by a secondary rabbit anti-goat IgG AF488-conjugated antibody (Invitrogen, 1:400) and a secondary rabbit anti-goat IgG AF594-conjugated antibody (Invitrogen, 1:400) respectively. Podocyte culture cells were immunostained against podocin (ab50339 Abeam), nephrin (ab58968 Abeam), WTI (ab15249 Abeam) or p57 (Santa Cruz Biotechnology). The nuclei were stained using DAPI. Images were obtained with an Axioimager Z1 apotome (Zeiss).\nFor preventive strategy, antagomiR treatment (12 mg/kg) started 3 days before NTS injection. AntagomiRs (VBC biotech, Vienna) were delivered by retro-orbital i.v. injections under brief anesthesia. Second and third injections were performed on days 1 and 3 with NTS injection. For curative strategy, antagomir were injected on days 4, 5 and 8 after NTS. A scramble antagomiR (Antagomir-Control) was used as control. […]"}, "[5]": {"tested_on": "miR-17, miR-18a, miR-19a and miR-20a", "experiment": "RT-qPCR of other miR-17-92 cluster members in isolated glomeruli of NTS-challenged mice", "format": "in vivo", "conditions": "antagomiR 12 mg/kg i.v., preventive strategy; 10 days after NTS", "experimental": "[…] U6 snRNA was used as endogenous control.\nFor preventive strategy, antagomiR treatment (12 mg/kg) started 3 days before NTS injection. AntagomiRs (VBC biotech, Vienna) were delivered by retro-orbital i.v. injections under brief anesthesia. Second and third injections were performed on days 1 and 3 with NTS injection. For curative strategy, antagomir were injected on days 4, 5 and 8 after NTS. A scramble antagomiR (Antagomir-Control) was used as control. The sequences were obtained from previously published manuscript (66). In the miR-92 antagomir and control antagomir, the 2′O RNA base are methylated followed by first two bases and last 3 bases are phosphorothiated to increase the stability of antagomir from degradation. In addition, a cholesterol-TEG was added at the 3′ for easy entry of antagomir into the cells. AntagomiR-Control (SEQ ID NO: 7, anti-miR-ctrl): 5′-[…]-3′ and antagomiR-92a (SEQ ID NO: 8, anti-miR-92a): 5′-[…]-3′ as shown to be effective after in vivo administration in kidneys (34, 67). Saline-treated mice were used as control of the scramble antagomiR."}, "[6]": {"tested_on": "p57", "experiment": "p57 protein expression in transfected podocytes (western blot, immunofluorescence)", "format": "cell-based, mouse", "conditions": "anti-miR-92a transfected podocytes", "experimental": "as §2\nas §1, with “Biotechnology). Samples were resolved on 4-12% Bis-Tris Criterion XT gels (Bio-Rad) then transferred to a polyvinylidene difloride membrane.” for “Biotechnology).”, “quantification. […]” for “quantification.”"}}, "data": [{"compound": "O=[N+]([O-])c1ccc2c(c1)S(=O)(=O)C=C2", "note": "[Stattic]", "values": [{"measurement": "Ki67 expression in primary podocytes", "setting": "[1]; Stattic 2 μM for 16 hours", "value": "markedly blunted"}, {"measurement": "PCNA expression in primary podocytes", "setting": "[1]; Stattic 2 μM for 16 hours", "value": "markedly blunted"}, {"measurement": "STAT3 (Tyr705) phosphorylation in glomeruli", "setting": "[2]", "value": "significantly reduced"}]}, {"compound": "anti-miR-92a: 2′O-methylated, end-phosphorothioated antagomir with 3′ cholesterol-TEG, SEQ ID NO: 8, 5′-CAGGCCGGGACAAGUGCAAUA-3′ (VBC biotech) (listed as RNA, chemistry not fully specified)", "values": [{"measurement": "STAT3 protein level", "setting": "[3]", "value": "did not affect"}, {"measurement": "p57 expression in glomeruli", "setting": "[4]", "value": "rescued"}, {"measurement": "Ki67 mRNA level", "setting": "[1]; anti-miR-92a transfected (50 nM) primary podocytes, vs control cells or anti-miR control", "value": "decrease"}, {"measurement": "levels of others miR of 17-92 cluster in isolated glomeruli", "setting": "[5]", "value": "without modify"}, {"measurement": "p57 expression", "setting": "[6]", "value": "increase"}]}]}
